Patent US20220315577A1, “NEW EGFR INHIBITORS” (Hoffmann-La Roche Inc., priority 2019, published 2022)

Biological target: T1, EGFR TMLRCS (T790M/L858R/C797S), BaF3-TMLRCS cell line (Homo sapiens, UniProt P00533, C797S/L858R/T790M)
T1 construct: host or cells: BaF3 (BaF3-TMLRCS, puromycin selection)
Experiment: HTRF Phospho EGFR TMLRCS assay (cellular)
Type: cell-based
Conditions: BaF3-TMLRCS cells, 4 hours incubation, Phospho-EGFR HTRF readout
Experimental: HTRF Phospho EGFR TMLRCS Assay (Cellular)
BaF3-TMLRCS cell line were obtained from Crownbio (San Diego, Calif., USA). Cells were maintained at 37° C., 5% CO2 in RPMI ATCC (Gibco 31870)+2 mM Glutamine+0.5 μg/ml Puromycin supplemented with 10% fetal bovine serum (FBS) (Gibco).
Cells are transferred as above to Greiner Bio-One, Nr. 784-08 micro-titerplate at 20000 cells/well in 12.5 μl of growth medium/well after the plates had been pre-filled with 12.5 nl of DMSO solutions of the to be tested compounds (in dose response) or DMSO only. After spinning the plates at 300×g for 30 seconds the cells were incubated for 4 hours at 37 C, 5% CO2, 95% humidity. The cells were lysed by adding to the compound mix 4 μl/well of the supplemented lysis buffer (Cis-bio, Phospho-EGFR HTRF kit, 64EG1PEH), followed by incubation for 30 min at room temperature with shaking (400 rpm). The plates were then frozen and stored overnight at −80 C. On the next day and after thawing the plates, 4 μl of a mixture of anti-Phospho-EGFR Cryptate and of anti-Phospho-EGFR-d2 antibody solutions prepared in the supplied detection buffer was added to each well. The lidded plates were then incubated for 4 h at room temperature before reading the fluorescence emission at 616 and 665 nm using an Envision reader (Perkin Elmer). Data was analyzed in similar fashion as above using the normalized ratio of the 665 to 616 signals multiplied by 10000.

T1 sequence (P00533 25-1210 T790M/C797S/L858R): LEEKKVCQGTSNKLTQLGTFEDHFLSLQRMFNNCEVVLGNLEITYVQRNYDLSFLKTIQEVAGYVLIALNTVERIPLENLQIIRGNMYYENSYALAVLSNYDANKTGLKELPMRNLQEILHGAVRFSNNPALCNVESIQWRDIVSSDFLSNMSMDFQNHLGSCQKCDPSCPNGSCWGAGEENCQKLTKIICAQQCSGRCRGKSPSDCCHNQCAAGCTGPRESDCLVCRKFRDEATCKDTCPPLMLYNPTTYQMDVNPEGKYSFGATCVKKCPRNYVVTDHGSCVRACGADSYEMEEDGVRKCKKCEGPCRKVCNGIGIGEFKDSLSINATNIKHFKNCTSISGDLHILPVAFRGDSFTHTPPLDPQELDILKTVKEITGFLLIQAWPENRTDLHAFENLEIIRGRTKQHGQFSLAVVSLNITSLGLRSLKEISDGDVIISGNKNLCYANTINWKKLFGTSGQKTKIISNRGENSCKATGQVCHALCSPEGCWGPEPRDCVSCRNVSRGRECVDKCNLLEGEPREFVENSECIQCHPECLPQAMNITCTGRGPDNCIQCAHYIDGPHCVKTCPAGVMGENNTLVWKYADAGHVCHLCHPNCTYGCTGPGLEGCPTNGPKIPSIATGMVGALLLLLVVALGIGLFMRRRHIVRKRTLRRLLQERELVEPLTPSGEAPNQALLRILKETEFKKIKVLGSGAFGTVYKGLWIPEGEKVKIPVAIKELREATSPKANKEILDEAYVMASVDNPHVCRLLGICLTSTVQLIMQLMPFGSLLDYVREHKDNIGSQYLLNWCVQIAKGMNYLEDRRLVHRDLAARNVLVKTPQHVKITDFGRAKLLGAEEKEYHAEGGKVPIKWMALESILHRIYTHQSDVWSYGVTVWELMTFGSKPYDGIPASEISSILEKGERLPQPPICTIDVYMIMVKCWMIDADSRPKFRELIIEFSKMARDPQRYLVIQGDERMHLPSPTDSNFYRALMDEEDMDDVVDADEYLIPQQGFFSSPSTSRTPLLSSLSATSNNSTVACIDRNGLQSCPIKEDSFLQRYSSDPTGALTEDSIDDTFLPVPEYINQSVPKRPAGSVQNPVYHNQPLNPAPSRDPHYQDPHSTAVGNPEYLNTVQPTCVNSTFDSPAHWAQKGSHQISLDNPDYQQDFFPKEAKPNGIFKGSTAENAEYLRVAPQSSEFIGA

Q: `CCN1CCC(c2ccc(-c3cc(F)c4c(c3)C(=O)N(C(C(=O)Nc3nccs3)c3cc(F)ccc3O)C4)cc2)CC1` (racemic) [Example 1, (2RS)-2-[6-[4-(1-Ethyl-4-piperidyl)phenyl]-4-fluoro-1-oxo-isoindolin-2-yl]-2-(5-fluoro-2-hydroxy-phenyl)-N-thiazol-2-yl-acetamide] was tested. Which IC50 did it give?
A: 12 nM

Q: Which IC50 does the source give for `CCN1CCC(c2ccc(-c3cc(F)c4c(c3Cl)C(=O)N(C(C(=O)Nc3nccs3)c3cc(F)ccc3O)C4)cc2)CC1` (racemic) [Example 2, (2RS)-2-[7-Chloro-6-[4-(1-ethyl-4-piperidyl)phenyl]-4-fluoro-1-oxo-isoindolin-2-yl]-2-(5-fluoro-2-hydroxy-phenyl)-N-thiazol-2-yl-acetamide] here?
A: 11 nM

Q: Which IC50 does the source give for `O=C(Nc1nccs1)C(c1cc(F)ccc1O)N1Cc2c(F)cc(-c3ccc(C4CCN(CCF)CC4)cc3)cc2C1=O` (racemic) [Example 3, (2RS)-2-[4-Fluoro-6-[4-[1-(2-fluoroethyl)-4-piperidyl]phenyl]-1-oxo-isoindolin-2-yl]-2-(5-fluoro-2-hydroxy-phenyl)-N-thiazol-2-yl-acetamide] here?
A: 9 nM
